Here are results for twelve compounds from PubChem BioAssay (NCI).

Test systems include MOLT-4 leukemia; SN12C renal; TK-10 renal; RPMI-8226 leukemia; EKVX NSCLC; ACHN renal; NCI-H522 lung; HCC-2998 colon; CAKI-1 renal; COLO 205 colon.
What all share (experiment): NCI anticancer screen, dose series, 48 h

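How tested: cells in 96-well plates exposed to compound for 48 hours at five concentrations. GI50 is the concentration that inhibits growth by half. TGI: concentration producing complete growth inhibition.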

On to `CS(=O)(=O)OCc1c(O)c2c(c(O)c1COS(C)(=O)=O)C(=O)C=CC2=O`, for which the TGI in the assay with MOLT-4 leukemia, in the assay with SN12C renal, in the assay with TK-10 renal, with RPMI-8226 leukemia, with EKVX NSCLC and in the assay on ACHN renal was over 100 µM in each case. In addition, the TGI in the assay with NCI-H522 lung, in the assay with HCC-2998 colon, with CAKI-1 renal and with COLO 205 colon was over 100 µM each time.
Regarding `C=C1C(=O)OC2/C=C(\C)CC(O)/C=C(/CO)CC(OC(=O)/C(C)=C/C)C12` (stereo not given), the TGI in the assay on MOLT-4 leukemia was determined as 43.8 µM; in the assay with SN12C renal, 437 µM; in the assay with RPMI-8226 leukemia it was 17.4 µM; in the assay on EKVX NSCLC, 59.1 µM; with NCI-H522 lung it was 26.4 µM; in the assay on HCC-2998 colon it was 134 µM. Further, the TGI is 238 µM in the assay on CAKI-1 renal and 96.8 µM in the assay on COLO 205 colon.
`C=CCC1=CC2(OC)C(=O)C(OC)(OC)C1C1C(OC)(OC)C(=O)C(OC)=CC12CC=C` (stereo not given): the TGI in the assay on MOLT-4 leukemia, in the assay on SN12C renal, in the assay on TK-10 renal, in the assay on RPMI-8226 leukemia, in the assay with EKVX NSCLC and in the assay with ACHN renal was over 100 µM in each case. The TGI with NCI-H522 lung, with HCC-2998 colon, in the assay on CAKI-1 renal and in the assay with COLO 205 colon was over 100 µM throughout.
For `C[C@]12CC[C@H](O)CC1=CC[C@@H]1[C@@H]2CC[C@]2(C)C(=O)CC[C@@H]12`, the TGI with MOLT-4 leukemia, in the assay with SN12C renal, in the assay on TK-10 renal, with RPMI-8226 leukemia, in the assay with EKVX NSCLC and in the assay with ACHN renal was over 100 µM in each case. For the same compound, the TGI in the assay on NCI-H522 lung, with HCC-2998 colon, in the assay on CAKI-1 renal and in the assay with COLO 205 colon was over 100 µM in each case.
With `CC(C)Cc1cccc(C(C)C)c1NC(=O)CCC(=O)N/N=C1\C(=N/NC(=O)CCC(=O)Nc2c(C(C)C)cccc2C(C)C)C(c2ccc3c(c2)OCO3)Oc2ccccc21` (stereo not given), the TGI in the assay on MOLT-4 leukemia, in the assay on SN12C renal, in the assay with TK-10 renal, in the assay with RPMI-8226 leukemia, in the assay on EKVX NSCLC and in the assay with ACHN renal was over 100 µM in each case. The TGI with NCI-H522 lung, with HCC-2998 colon, with CAKI-1 renal and with COLO 205 colon was over 100 µM each time.
On to `COc1ccc(-n2cc(-c3ccc(OC)c(OC)c3)nc2SCc2ccccc2)cc1Cl`, for which the GI50 in the assay with MOLT-4 leukemia was 21.2 µM; in the assay on SN12C renal, 38.1 µM; in the assay with TK-10 renal it was 29.5 µM; in the assay on RPMI-8226 leukemia it was 4.38 µM; with EKVX NSCLC, 13.8 µM; in the assay on ACHN renal, 38.9 µM. Besides, the GI50 is 13.2 µM with NCI-H522 lung, 19.3 µM in the assay on HCC-2998 colon, 41.7 µM with CAKI-1 renal and 19 µM in the assay with COLO 205 colon. Further, the TGI with MOLT-4 leukemia is over 100 µM; in the assay with SN12C renal, over 100 µM; with TK-10 renal, over 100 µM; in the assay on RPMI-8226 leukemia, 20 µM; in the assay with EKVX NSCLC, 64.7 µM; in the assay on ACHN renal it was over 100 µM. Further, the TGI in the assay with NCI-H522 lung was 98.4 µM; with HCC-2998 colon, 45.5 µM; with CAKI-1 renal it was over 100 µM; in the assay with COLO 205 colon, 45.4 µM.
In the case of `FC(F)(F)C1=NC(=NNc2nnc(-c3ccccc3)c(-c3ccccc3)n2)N=C(C(F)(F)F)C1`, the TGI with MOLT-4 leukemia is over 100 µM; in the assay on SN12C renal it was over 100 µM; in the assay on RPMI-8226 leukemia, over 100 µM; with EKVX NSCLC, over 100 µM; in the assay on NCI-H522 lung, 53.6 µM; in the assay with HCC-2998 colon, over 88.9 µM. Moreover, the TGI in the assay with CAKI-1 renal is over 100 µM; with COLO 205 colon, 61.4 µM.
Consider `C[C@H](O)C(=O)SC[C@H](NC(=O)CC[C@@H](N)C(=O)O)C(=O)NCC(=O)O`, for which the TGI in the assay with MOLT-4 leukemia, with SN12C renal, with TK-10 renal, in the assay on RPMI-8226 leukemia, with EKVX NSCLC and in the assay with ACHN renal was over 100 µM throughout. The TGI with NCI-H522 lung, in the assay on HCC-2998 colon, in the assay on CAKI-1 renal and in the assay with COLO 205 colon was over 100 µM throughout.
For `Oc1ccc2ccccc2c1Cc1c(O)ccc2ccccc12`, the TGI in the assay on MOLT-4 leukemia worked out at 36.9 µM; in the assay with SN12C renal it was 34.6 µM; in the assay on TK-10 renal, 48.9 µM; with RPMI-8226 leukemia, 40.4 µM; with EKVX NSCLC, 32.6 µM; with ACHN renal, 33.8 µM. The TGI in the assay on NCI-H522 lung is 26 µM; in the assay with HCC-2998 colon, 40.6 µM; with CAKI-1 renal, 33.9 µM; in the assay on COLO 205 colon, 36.5 µM.
Regarding `C[n+]1c(-c2ccc(/C=N\NC(=O)c3ccc(C(=O)N/N=C/c4ccc(-c5cn6ccsc6[n+]5C)cc4)cc3)cc2)cn2ccsc21`, the TGI was determined as 54.1 µM in the assay on MOLT-4 leukemia; 43.8 µM in the assay on SN12C renal; 40.3 µM in the assay with TK-10 renal; 55 µM with RPMI-8226 leukemia; 34.3 µM with EKVX NSCLC; 33.3 µM in the assay with ACHN renal. The TGI with NCI-H522 lung was 60.6 µM; in the assay on HCC-2998 colon it was 58.4 µM; in the assay with CAKI-1 renal it was 41 µM; in the assay on COLO 205 colon it was 54.3 µM.
`O=c1cc(-c2nc3ccccc3[nH]2)[nH]c2nc(-c3nc4ccccc4[nH]3)cc(-c3ccc(Cl)cc3)c12`: the TGI in the assay with MOLT-4 leukemia is 96.4 µM; in the assay on SN12C renal, 46.9 µM; with TK-10 renal it was 49 µM; in the assay with RPMI-8226 leukemia it was 44 µM; with EKVX NSCLC it was over 100 µM; in the assay on ACHN renal, 41.6 µM. Further, the results for the TGI in the assay on NCI-H522 lung, in the assay with CAKI-1 renal and in the assay with COLO 205 colon were 26.1 µM, 76 µM and 24.6 µM, respectively.
In the case of `CCOc1cc(NC(C)=O)ccc1C(=O)NN1C(=O)CSC1c1ccc(O)c(OC)c1` (stereo not given), the TGI in the assay on MOLT-4 leukemia was over 100 µM; with SN12C renal, over 100 µM; with TK-10 renal, 39.3 µM; in the assay with RPMI-8226 leukemia, over 100 µM; in the assay on EKVX NSCLC it was over 100 µM; in the assay on ACHN renal it was over 100 µM. Also, the TGI in the assay on NCI-H522 lung, in the assay with HCC-2998 colon, in the assay with CAKI-1 renal and in the assay with COLO 205 colon was over 100 µM throughout.
